Molecular target: T1, human neprilysin (EC 3.4.24.11; NEP) (Homo sapiens, UniProt P08473)
T1 construct: purchased R&D Systems, Minneapolis, MN 1182-ZN
Experiment: In vitro enzyme inhibition assay at human NEP (fluorogenic peptide substrate)
Assay type: biochemical
Conditions: recombinant human NEP; fluorogenic substrate Mca-D-Arg-Arg-Leu-Dap-(Dnp)-OH; 37° C., pH 7.5; read-out: pKi value at human NEP (converted)
Protocol: The inhibitory activities of compounds at human and rat neprilysin (EC 3.4.24.11; NEP) and human angiotensin converting enzyme (ACE) were determined using in vitro assays as described below.
Recombinant human NEP and recombinant human ACE were obtained commercially (R&D Systems, Minneapolis, MN, catalog numbers 1182-ZN and 929-ZN, respectively). The fluorogenic peptide substrate Mca-D-Arg-Arg-Leu-Dap-(Dnp)-OH (Medeiros et al. (1997) Braz. J. Med. Biol. Res. 30:1157-62; Anaspec, San Jose, Calif.) and Abz-Phe-Arg-Lys(Dnp)-Pro-OH (Araujo et al. (2000) Biochemistry 39:8519-8525; Bachem, Torrance, Calif.) were used in the NEP and ACE assays respectively.
The assays were performed in 384-well white opaque plates at 37° C. using the fluorogenic peptide substrates at a concentration of 10 µM in Assay Buffer (NEP: 50 mM HEPES, pH 7.5, 100 mM NaCl, 0.01% polyethylene glycol sorbitan monolaurate (Tween-20), 10 μM ZnSO4; ACE: 50 mM HEPES, pH 7.5, 100 mM NaCl, 0.01% Tween-20, 1 μM ZnSO4).
Test compounds were assayed over the range of concentrations from […] to 20 μM. Test compounds were added to the enzymes and incubated for 30 minute at 37° C. prior to initiating the reaction by the addition of substrate. […]
Plates were read on a fluorometer with excitation and emission wavelengths set to 320 nm and 405 nm, respectively. […]

T1 sequence (P08473 52-750 limits assumed): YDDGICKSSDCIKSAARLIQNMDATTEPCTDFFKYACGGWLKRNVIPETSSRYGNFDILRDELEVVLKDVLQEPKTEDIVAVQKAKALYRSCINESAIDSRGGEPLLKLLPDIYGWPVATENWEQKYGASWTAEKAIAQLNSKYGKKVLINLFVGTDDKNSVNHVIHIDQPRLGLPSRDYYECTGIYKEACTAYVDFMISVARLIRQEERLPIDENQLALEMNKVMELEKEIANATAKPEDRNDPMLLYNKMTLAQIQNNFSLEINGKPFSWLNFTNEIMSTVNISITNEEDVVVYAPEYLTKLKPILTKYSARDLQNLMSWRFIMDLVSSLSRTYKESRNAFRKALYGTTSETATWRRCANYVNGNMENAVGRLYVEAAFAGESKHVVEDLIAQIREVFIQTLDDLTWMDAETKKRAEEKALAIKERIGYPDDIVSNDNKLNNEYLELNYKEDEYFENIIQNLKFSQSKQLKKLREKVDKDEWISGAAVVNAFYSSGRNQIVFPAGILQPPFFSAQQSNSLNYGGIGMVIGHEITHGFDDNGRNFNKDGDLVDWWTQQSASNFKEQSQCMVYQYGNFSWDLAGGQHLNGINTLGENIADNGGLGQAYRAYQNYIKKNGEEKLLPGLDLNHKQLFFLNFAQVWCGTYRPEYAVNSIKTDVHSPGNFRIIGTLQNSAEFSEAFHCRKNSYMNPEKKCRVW

Ki: ≤ 1 nM
Structure (SMILES): CC(=O)c1cc(C(=O)NN(Cc2ccc(-c3cc(Cl)ccc3F)cc2)C[C@@H](O)C(=O)O)[nH]n1 [Example 6A, (R)-3-[N′-(5-Acetyl-2H-pyrazole-3-carbonyl)-N-(5′-chloro-2′-fluorobiphenyl-4-ylmethyl)hydrazino]-2-hydroxypropionic Acid]

— patent US9981999B2, “Neprilysin inhibitors” (THERAVANCE BIOPHARMA R&D IP, LLC, priority 2012, dated 2018)
